Measurements taken from patent US11992506B2, “Stem cell derived pancreatic islet differentiation” (Vertex Pharmaceuticals Incorporated, priority 2021, dated 2024).
Several values for one entry are separate records, joined by “and”; a condition that tells them apart may be missing. Identical values can stand only once.

How the values were obtained:
[1] = test system: PDX1-positive, NKX-negative cells; experiment: Effects of differentiation agents on pancreatic islet cell differentiation (ISL1/NKX6.1 flow cytometry); assay type: cell-based; conditions: for % of beta cells in S5D6 cell population: agents added to the base protocol on S4D5, S5D1, S5D2, FOXOi 1 μM, XAV 2 μM (present S5D1-4), TPB or PDBU 0.5 μM, XXI 2 μM
Protocol: FoxO1 inhibitor (FoxOi), Wnt inhibitor (XAV), Notch inhibitor (XXI), and/or PKC activator (PDBU or TPB) were tested for their effects on pancreatic islet cell differentiation.
PDX1-positive, NKX-negative cells were administered KGF (50 ng/ml), Sant-1 (250 nM), thiazovivin (2.5 μM), activin A (5 ng/ml), and retinoic acid (100 nM) for a period of six days (S4D1-S4D6) in a media including polyvinyl alcohol-80 (PVA-80) to generate a second population of cells. On day S4D5, the cells may also have been administered an additional reagent or combination of reagents as outlined in Table 5. After the six days, the second population of cells was administered XXI (2 μM), Alk5i (10 μM), GC-1 (1 μM), LDN-193189 (100 nM), thiazovivin (2.5 μM), staurosporine (3 nM), DZNEP (100 nM), Sant-1 (250 nM), retinoic acid (50 nM), and betacellulin (20 ng/ml) for two days (S5D1-S5D2) in a media comprising PVA-89. On days S5D1 and S5D2, the cells may also have been administered an additional reagent or combination of reagents as outlined in Table 5. On days S5D3-S5D6, the cells were administered XXI (2 μM), Alk5i (10 μM), GC-1 (1 μM), LDN-193189 (100 nM), thiazovivin (2.5 μM), staurosporine (3 nM), and DZNEP (100 nM). Cells were collected for analysis on day […].

[2] = target: EZH2 (Homo sapiens, UniProt Q15910); conditions: cited from earlier work
EZH2, sequence (Q15910 whole entry, species assumed): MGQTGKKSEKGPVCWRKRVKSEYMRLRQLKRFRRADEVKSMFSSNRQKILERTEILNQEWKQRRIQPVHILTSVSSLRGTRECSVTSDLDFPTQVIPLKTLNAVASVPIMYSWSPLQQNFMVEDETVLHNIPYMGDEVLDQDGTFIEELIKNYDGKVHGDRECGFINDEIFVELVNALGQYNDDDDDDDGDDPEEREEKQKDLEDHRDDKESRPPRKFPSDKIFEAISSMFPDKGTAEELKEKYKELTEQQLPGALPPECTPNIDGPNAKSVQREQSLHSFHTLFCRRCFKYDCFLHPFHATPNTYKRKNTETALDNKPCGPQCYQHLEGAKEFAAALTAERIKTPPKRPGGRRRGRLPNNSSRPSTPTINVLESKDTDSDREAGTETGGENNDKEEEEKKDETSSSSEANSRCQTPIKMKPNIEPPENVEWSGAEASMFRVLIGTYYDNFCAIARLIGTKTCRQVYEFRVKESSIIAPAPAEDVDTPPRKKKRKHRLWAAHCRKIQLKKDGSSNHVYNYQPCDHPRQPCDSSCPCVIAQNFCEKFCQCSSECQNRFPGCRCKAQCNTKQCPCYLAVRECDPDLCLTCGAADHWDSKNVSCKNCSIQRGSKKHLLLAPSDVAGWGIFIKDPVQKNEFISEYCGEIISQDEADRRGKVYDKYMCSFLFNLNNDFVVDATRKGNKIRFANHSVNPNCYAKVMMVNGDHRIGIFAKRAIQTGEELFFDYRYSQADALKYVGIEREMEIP
EZH2, sequence (O75530 whole entry partner, species assumed): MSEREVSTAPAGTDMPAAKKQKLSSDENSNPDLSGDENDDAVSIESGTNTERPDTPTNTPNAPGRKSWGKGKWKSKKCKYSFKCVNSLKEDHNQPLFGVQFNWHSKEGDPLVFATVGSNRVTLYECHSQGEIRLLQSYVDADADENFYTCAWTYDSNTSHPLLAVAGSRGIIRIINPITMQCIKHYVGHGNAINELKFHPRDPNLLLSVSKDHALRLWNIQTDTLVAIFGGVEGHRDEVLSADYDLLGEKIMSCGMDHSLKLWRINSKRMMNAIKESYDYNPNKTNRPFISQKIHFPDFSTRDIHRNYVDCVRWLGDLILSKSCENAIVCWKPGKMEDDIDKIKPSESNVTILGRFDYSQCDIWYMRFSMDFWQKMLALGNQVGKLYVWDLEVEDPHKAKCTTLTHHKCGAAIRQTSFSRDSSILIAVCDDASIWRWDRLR
EZH2, sequence (Q15022 whole entry partner, species assumed): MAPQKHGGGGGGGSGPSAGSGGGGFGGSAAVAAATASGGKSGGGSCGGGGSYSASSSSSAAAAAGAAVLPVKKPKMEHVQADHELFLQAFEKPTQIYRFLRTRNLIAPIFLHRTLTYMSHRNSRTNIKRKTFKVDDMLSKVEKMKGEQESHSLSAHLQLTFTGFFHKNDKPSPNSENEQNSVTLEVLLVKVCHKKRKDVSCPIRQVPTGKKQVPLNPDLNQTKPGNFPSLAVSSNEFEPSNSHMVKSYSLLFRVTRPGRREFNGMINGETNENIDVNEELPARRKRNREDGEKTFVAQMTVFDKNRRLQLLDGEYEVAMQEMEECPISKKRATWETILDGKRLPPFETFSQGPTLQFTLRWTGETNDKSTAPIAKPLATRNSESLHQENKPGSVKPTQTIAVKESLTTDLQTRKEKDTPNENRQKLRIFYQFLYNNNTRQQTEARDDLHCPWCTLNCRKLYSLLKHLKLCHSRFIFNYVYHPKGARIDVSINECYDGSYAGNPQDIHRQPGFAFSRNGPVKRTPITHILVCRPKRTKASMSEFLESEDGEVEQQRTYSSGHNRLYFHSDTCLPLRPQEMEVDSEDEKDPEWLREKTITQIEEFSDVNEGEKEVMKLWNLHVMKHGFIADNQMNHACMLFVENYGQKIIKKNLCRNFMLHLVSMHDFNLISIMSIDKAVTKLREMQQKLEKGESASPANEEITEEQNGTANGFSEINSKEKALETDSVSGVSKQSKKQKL

[3] = test system: SC-islet cells; experiment: Effect of additional FGF2 in stage 6 of differentiation; assay type: cell-based, human; conditions: FGF2 100 ng/ml added to stage 6 media (Media A) of Protocol 3
Protocol: SC-islet cells were differentiated using Protocol 1, Protocol 2, Protocol 3, or Protocol 3 with the addition of FGF2 (at 100 ng/ml) in stage 6 media (Media A shown in Table 6). Cells were collected on S6D3, S6D7, and […] for analysis. Cells were also tested for insulin content (FIG. 35A) and glucagon content (FIG. 35B).

Compound	% of beta cells in S5D6 cell population [1]	other results
CCn1cc(C(=O)O)c(=O)c2c(N)c(F)c(NC3CCCCC3)cc21 [FOXOi]	19% and 13%	–
CCCc1cc(C)[nH]c(=O)c1CNC(=O)c1cc(-c2ccc(N3CCN(C(C)C)CC3)nc2)cc2c1cnn2C(C)C [UNC1999]	–	selectivity compared with GSK126 ([2]; analogue of GSK126): less selective
CCCC(=O)O[C@@H]1[C@@H](C)[C@@]2(O)[C@@H](C=C(CO)C[C@]3(O)C(=O)C(C)=C[C@@H]23)[C@@H]2C(C)(C)[C@]12OC(=O)CCC [PDBU, Phorbol 12,13-dibutyrate]	28%	–
Oc1nc(-c2ccc(C(F)(F)F)cc2)nc2c1CSCC2 [XAV]	5%	–
FGF2: growth factor from the FGF family, added at 100 ng/ml in stage 6 media	–	glucagon-expressing cells (SC-alpha cells) [3]: increases
CC(C)[C@H]1C(=O)N[C@H](CO)Cc2cc(NC(=O)/C=C/C=C/c3ccc(C(F)(F)F)cc3)ccc2N1C [TPB, ((2S,5S)-(E,E)-8-(5-(4-(Trifluoromethyl)phenyl)-2,4-pentadienoylamino)benzolactam)]	17%	beta cell production (in words) ([1]; agents added on S4D5 and/or S5, FIGS. 9-15): did not result in more beta cell production
CC[C@H](C)n1cc(C)c2c(C(=O)NCc3c(C)cc(C)[nH]c3=O)cc(-c3ccc(N4CCNCC4)nc3)cc21 [GSK126]	–	selectivity over EZH1 ([2]; SAM-competitive EZH2 inhibitor): 150 fold
